Measurements from patent US20140171918A1, “USE OF A NOVEL SU[…]-FREE […] TO DELIVER TE[…] H[…]” (Bioject, Inc., priority 2012, published 2014).

What was measured:
[1] = Pharmacokinetic evaluation using testosterone levels after needle-free (Zetajet) subcutaneous self-injection; assay type: in vivo, human
Excerpt: The goal of the study is to determine if a needle-free injector can consistently deliver frequent administrations (daily or three times weekly) of testosterone in a safe and effective manner. To answer this specific question, the study was designed to determine the efficacy (defined as testosterone serum levels, wetness, pain, and clinical questionnaire) of the combined product (cross labeled) of needle-free injection of testosterone cypionate hypogonadal men. This includes both objective (testosterone free and total levels) and subjective (pain and clinical questionnaire).
On Jan. 26, 2013, IRBS approved a modification of the CP-445 study. Due to a clear efficacy and patient acceptance at day 30, an extension of the study was requested to follow the fourteen subject's testosterone levels at a less frequent dosing interval and increased dosage. There was no deviation to the protocol as originally designed for day 0-30. Nor was there any deviation to the conduct of the study to day 120. This modification allowed following subjects out to day 120 on a Monday, Wednesday, Friday dosing of 50 mg of testosterone cypionate. Only T levels at day 60 and 120 were assessed.

hypogonadal men [2] = experiment: Visual/verbal analog pain scale after needle-free injection
Protocol: Each subject was given thorough instruction on performing self needle-free injections with the Zetaj et. […] Pharmacokinetic evaluation using testosterone levels were obtained at specified intervals. Secondary endpoints, both objective and subjective, included E2 levels, pain score diaries, and AMS scores obtained before and after one month of treatment. A dose confirmation strategy was conducted to achieve likelihood of valid dose.
From day 60-90, all subjects were verified to have cottonseed vehicle in the commercially available formulation via Watson Pharmaceutical.

hypogonadal men [3] = experiment: Aging Male Score (AMS) questionnaire before and after treatment; assay type: in vivo, human
Excerpt: AMS scoring was based on a rating of symptom severity ranging from no symptoms with the lowest score of 1 to severe symptoms with a […].

hypogonadal men [4] = experiment: Adverse events, injection site reactions and wetness after needle-free injection; assay type: in vivo, human
Excerpt: Of the 14 patients 9 recorded symptoms of redness, 5 symptoms of bruising and one an induration. None of these reactions required medical follow up or dissuaded any patient from discontinuing treatment. See section on Preference for additional data on patient preference and comparison of needle-Free injection methods to needle and syringe. FIG. 5 depicts post injection site reactions as a percentage of the total number of injections for 14 patients over a 30 day period.
Wetness at the injection site is believed to be attributed to moisture on the tip of the syringe prior to the injection per recommended technique. Wetness with visible moisture flow at the site of the injection is thought to result from improper injection technique and a lack of fluid pressure in the nozzle because of the technique. Results for wetness varied across all patients. FIG. 7 depicts cumulative wetness results by category as a percentage of total injections.

## C[C@]12CC[C@H]3[C@@H](CCC4=CC(=O)CC[C@@]43C)[C@@H]1CC[C@@H]2OC(=O)CCC1CCCC1 [testosterone cypionate]
[1]; 25 mg daily Zetajet injection, 6 hours to day 30
  course of free and total testosterone levels: consistently rose from 6 hours to day 30
[1]; 25 mg daily Zetajet injection, day 30, four men
  average testosterone level of the men with supraphysiologic levels (above 975.0 ng/dl): 1203 ng/dl
[1]; 25 mg daily, from 8.76 ng/dl to 37.5 ng/dl
  increase of free testosterone levels: over four fold increase
[1]; QODWO 50 mg vs daily 25 mg
  average total testosterone levels of QODWO dosing lower than daily injections: 35%
[1]; QODWO dosing at 50 mg
  increase in testosterone levels: 3 fold
  supraphysiologic levels of testosterone: no men had supraphysiologic levels
[1]; QODWO dosing at 50 mg, men who completed the 120 day study extension
  men with normal testosterone levels: 11 out of 11
[1]; after 25 mg daily injection, baseline average 8.76 ng/dl
  average free testosterone level: 37.5 ng/dL
[1]; at two weeks, 25 mg daily
  men with normal testosterone levels (primary endpoint): 13/14
[1]; daily dosing regimen of 25 mg a day
  increase in average testosterone levels from baseline: over four fold increase
[1]; three formerly supraphysiologic subjects continued on QODWO regimen (50 mg), extended study
  average testosterone level after correction to the normal range: 519 ng/dL
Hypogonadal men [2]; five minutes after injection, scale 0-4, 25 mg daily needle-free injection
  verbal analog pain score, average: 0.54
Hypogonadal men [2]; five minutes after injection, scale 0-10, 25 mg daily needle-free injection in the abdomen
  visual analog pain score, average: 0.4
Hypogonadal men [2]; thirty minutes after injection, scale 0-4, 4 most painful
  verbal analog pain score: 0.26
Hypogonadal men [2]; thirty minutes after injection, scale 0-10, 10 most painful
  visual analog pain score: 0.14
Hypogonadal men [3]; after one month of 25 mg daily, baseline average 50 points, thirteen of fourteen men
  average AMS score after treatment: 25 points
Hypogonadal men [3]; after one month of treatment vs before
  average reduction in bothersome hypogonadal symptoms (AMS score): 50%
Hypogonadal men [4]; 100 mg/ml and 200 mg/ml commercially available formulations
  allergic response or major bruising: No allergic response or major bruising
Hypogonadal men [4]; 14 patients over 30 days
  share of injections resulting in minor redness and bruising: a quarter
Hypogonadal men [4]; entire study (to day 120)
  severe adverse events: No severe adverse events
Hypogonadal men [4]; needle-free injection in hypogonadal men
  tolerability / safety in words: well tolerated
Hypogonadal men [4]; of the 14 patients, 30 days
  patients who recorded an induration: one
  patients who recorded symptoms of bruising: 5
  patients who recorded symptoms of redness: 9
